Read-outs that look alike come from different tables or passages of the source.
Assays:
[1] = target: T1, mENBT1 (Mus musculus, UniProt A2AVZ9); experiment: Inhibition of ENBT1-mediated substrate uptake in HEK293-mslc43a3 cells; assay type: cell-based
T1 construct: Oligonucleotides corresponding to the coding region of SLC43A3 (NM_001278201) or slc43a3 (NM_021398); expressed in transfected cells; HEK293-mslc43a3
T1 sequence (A2AVZ9 1-502): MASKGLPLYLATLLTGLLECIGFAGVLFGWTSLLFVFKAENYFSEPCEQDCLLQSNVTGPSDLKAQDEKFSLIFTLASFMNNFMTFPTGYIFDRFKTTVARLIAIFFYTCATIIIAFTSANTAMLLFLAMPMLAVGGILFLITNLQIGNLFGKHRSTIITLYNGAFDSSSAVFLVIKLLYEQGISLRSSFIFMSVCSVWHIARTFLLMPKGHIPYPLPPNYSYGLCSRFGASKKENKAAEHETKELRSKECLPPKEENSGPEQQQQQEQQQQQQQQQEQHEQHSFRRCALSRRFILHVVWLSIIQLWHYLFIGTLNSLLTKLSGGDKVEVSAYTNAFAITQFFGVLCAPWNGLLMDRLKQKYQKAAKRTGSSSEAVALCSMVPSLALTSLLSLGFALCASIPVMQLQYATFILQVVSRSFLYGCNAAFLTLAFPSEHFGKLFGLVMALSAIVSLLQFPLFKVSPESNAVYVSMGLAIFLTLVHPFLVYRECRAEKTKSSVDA
Experimental: (§1) Harvested cells were suspended in nominally sodium-free N-methyl-D-glucamine (NMG) buffer (140 mM NMG, 5 mM KCl, 4.2 mM KHCO3, 0.36 mM K2HPO4, 0.44 mM KH2PO4, 0.5 mM MgCl2, 1.3 mM CaCl2, 10 mM HEPES, pH 7.4), to minimize potential contribution of sodium-dependent concentrative nucleoside transporter-mediated uptake. Additionally, cells were incubated for 15 minutes at room temperature with 10 μM dipyridamole (DY), an equilibrative nucleoside transporter (ENT) inhibitor, to block equilibrative nucleoside transporter–mediated uptake. The substrate uptake assay was initiated by adding 250 μL cell suspension to 250 μL [^3H] labeled substrate, layered over 21:4 silicone:mineral oil (200 μL) in 1.5 mL microcentrifuge tubes (conducted at room temperature). The uptake reaction was terminated after 2 seconds by centrifugation of the cells through the oil layer at ~10,000 g. This is the minimum incubation time achievable with this oil-stop technique, and it was found in previous studies that these short incubation times were necessary to assess the kinetics of this transporter. The aqueous layer was removed via vacuum-powered aspirator, and the tube was washed with 1 mL of NMG buffer prior to removal of the oil layer. The resulting cell pellet was digested in 250 μL 1 M NaOH overnight (~16 hours), with 220 μL aliquots of digested cells assessed for radioactive content using standard liquid scintillation counting techniques in a Beckman Coulter LS6500 scintillation system (Brea, CA).
(§2) To assess the ability of compounds to inhibit substrate uptake, cells were incubated with the inhibitor for 15 minutes prior to initiating the uptake assay, or exposed to the cells simultaneously with the radiolabelled substrate. […] After subtraction of the non-mediated uptake component, the degree of inhibition was calculated as the ratio of cellular accumulation in the presence of test compound to that measured in its absence (X 100).
(§3) Each assay was repeated 5–6 times using independent cell isolations and reagent preparations. In addition, within each assay, there were two or three technical replicates (using the same reagents and cells) that were averaged to obtain a single data point. Nonlinear curves were fitted to data (presented as mean ± SD from the 5–6 independent experiments), and statistical analyses were done using GraphPad Prism 10 software. In all cases, if the P-value determined from a statistical test was less than 0.05, the null hypothesis was rejected and the alternative hypothesis was favoured. Significant differences between groups were assessed using either Student’s t-test or ordinary one- or two-way analysis of variance (ANOVA) followed by a post hoc Šidák multiple comparison test, as appropriate. For influx and cell viability analyses, significant differences in Km and EC50 value, respectively, between the hENBT1 and mENBT1 data sets, were determined by the extra sum-of-squares F test. For inhibition analyses, the Ki values were determined from the IC50 values using the specified substrate concentration [S], based on the Cheng-Prusoff equation Ki = IC50/(1 + [S]/Km) and experimentally obtained Km values.

[2] = target: T2, hENBT1 (Homo sapiens, UniProt Q8NBI5); experiment: Inhibition of ENBT1-mediated substrate uptake in HEK293-hSLC43A3 cells; assay type: cell-based
T2 construct: Oligonucleotides corresponding to the coding region of SLC43A3 (NM_001278201) or slc43a3 (NM_021398); expressed in transfected cells; HEK293-hSLC43A3
T2 sequence (Q8NBI5 1-491): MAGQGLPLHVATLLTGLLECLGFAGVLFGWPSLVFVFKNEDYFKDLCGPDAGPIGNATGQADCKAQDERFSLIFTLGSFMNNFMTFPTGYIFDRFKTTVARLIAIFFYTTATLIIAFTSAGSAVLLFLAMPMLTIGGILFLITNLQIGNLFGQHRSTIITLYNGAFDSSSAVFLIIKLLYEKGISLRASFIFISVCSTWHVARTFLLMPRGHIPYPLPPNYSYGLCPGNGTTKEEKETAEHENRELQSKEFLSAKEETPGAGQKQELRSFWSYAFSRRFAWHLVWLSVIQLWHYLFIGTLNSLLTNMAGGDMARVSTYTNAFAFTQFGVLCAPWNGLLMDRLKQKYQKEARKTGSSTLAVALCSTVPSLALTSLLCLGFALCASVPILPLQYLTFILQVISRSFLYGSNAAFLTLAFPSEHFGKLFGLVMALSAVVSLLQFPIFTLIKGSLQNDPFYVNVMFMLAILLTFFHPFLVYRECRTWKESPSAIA
Experimental: as §1, §2, §3

Ki ([1]; HEK293-mslc43a3, 30 μM [3H]adenine, 2 seconds, Cheng-Prusoff, read-out: Ki for inhibition of ENBT1-mediated [3H]adenine uptake) | inhibition of ENBT1-mediated [3H]adenine uptake ([1]; at highest concentration of 6-MP tested (1 mM), HEK293-mslc43a3) | Ki relative to its Km for the transporter ([1]; mENBT1) | Ki ([2]; HEK293-hSLC43A3, 30 μM [3H]adenine, 2 seconds, Cheng-Prusoff, read-out: Ki for inhibition of ENBT1-mediated [3H]adenine uptake) | inhibition of ENBT1-mediated [3H]adenine uptake ([2]; at highest concentration of 6-MP tested (1 mM), HEK293-hSLC43A3) | Ki relative to its Km for the transporter ([2]; hENBT1) | Ki [1] | inhibition of ENBT1-mediated [14C]6-MP uptake ([1]; at 1 mM adenine, HEK293-mslc43a3) | Ki [2] | inhibition of ENBT1-mediated [14C]6-MP uptake ([2]; at 1 mM adenine, HEK293-hSLC43A3) | Compound
7400 ± 1300 µM | complete inhibition was not obtained | 30 fold | 5900 ± 700 µM | complete inhibition was not obtained | 30 fold | – | – | – | – | Sc1ncnc2nc[nH]c12 [6-MP, 6-Mercaptopurine]
– | – | – | – | – | – | 51 ± 13 µM | near complete inhibition | 25 ± 9 µM | near complete inhibition | Nc1ncnc2[nH]cnc12 [adenine, Adenine]

Reference: paper PMC11449324, “Functional comparison of human and murine equilibrative nucleobase transporter 1” (PLOS ONE, 2024)
